Measured values taken from PubChem BioAssay AID1645848.
In brackets after ≈: the same amount, converted by molar mass. Non-standard residues stand in square brackets, D forms with d. Residues, ends and D or L forms follow the SMILES beside them. ξ: configuration not given here. ξLac(3-iPr) = CC(C)CC(O)C(=O)O; NMeV = CN[CH](C(=O)O)C(C)C; NMeA = CN[CH](C)C(=O)O; βAla = NCCC(=O)O

Conditions: buffer; pH 7.4; 6.0 h; 150.0 µM

Structure (SMILES)	solubility kinetic
O=C(N/N=C/c1ccc(Sc2ccccn2)o1)c1ccncc1	> 48 µg/mL
O=C(Nc1ccc(S(=O)(=O)Nc2ncc(-c3ccccc3)s2)cc1)c1ccc2ccccc2c1	< 1 µg/mL
Nc1ccc(CNc2ccc([S+](=O)([O-])Nc3nccs3)cc2)c(O)c1	45.7 µg/mL (≈ 121 µM)
Nc1c(S(=O)(=O)c2cccs2)c2nc3ccccc3nc2n1Cc1ccccc1	< 1 µg/mL
Nc1c(-c2ccccc2)cc[nH]c1=O	12.9 µg/mL (≈ 69.1 µM)
CC(=O)c1c(C)c2cnc(Nc3ccc(N4CCNCC4)cn3)nc2n(C2CCCC2)c1=O	17.4 µg/mL (≈ 39 µM)
CN1C(=O)c2ccccc2[S@](=O)c2ccc(C(=O)NCc3cccnc3)cc21	1.35 µg/mL (≈ 3.45 µM)
CCN1CCN(C(=O)CCCn2nc(C)c3c(C)n(-c4ccc(C)cc4)nc3c2=O)CC1	> 43 µg/mL
CN(C)C(=O)c1nc(-c2ccc(Cl)cc2Cl)c2cnccn12	> 59 µg/mL
Oc1ccc(CNc2ccccc2F)c2cccnc12	4.4 µg/mL (≈ 16.4 µM)
CCOc1ccc(CCNC(=O)c2cc3ccccc3n2Cc2ccccn2)cc1OCC	< 1 µg/mL
CCC(C)C1NC(=O)C2CCCN2C(=O)C(CC(C)C)OC(=O)CCNC(=O)C(C)N(C)C(=O)C(C(C)C)N(C)C1=O (configuration not stated) (cyclo([ξLac(3-iPr)]PI[NMeV][NMeA][βAla]); configuration not given here)	2.68 µg/mL (≈ 4.52 µM)
Cc1ccc(S(=O)(=O)Nc2cnccc2C(=O)Nc2nc(-c3nc4ccccc4s3)cs2)cc1	2.11 µg/mL (≈ 4.15 µM)
c1ccc(-c2nnc3n2NC(c2ccc4c(c2)OCO4)S3)cc1 (configuration not stated)	1.56 µg/mL (≈ 4.82 µM)
N[C@@H]1CN(c2c(F)cc3c(=O)c(C(=O)O)cn([C@@H]4C[C@@H]4F)c3c2Cl)CC12CC2	> 60 µg/mL
CC[S+](=O)([O-])Nc1ccccc1C(=O)Nc1nc(-c2ccccc2)cs1	40.5 µg/mL (≈ 104 µM)
COc1cc(NC(=O)Cn2c(=O)oc3cc(S(=O)(=O)N4CCCCCC4)ccc32)cc(OC)c1	< 1 µg/mL
CCc1ccc(C(=O)Nc2cc(CN3CCN(C)CC3)cc(C(F)(F)F)c2)cc1C#Cc1cnc2ccnn2c1	< 1 µg/mL
Cc1ccc(S(=O)(=O)Nc2ccccc2C(=O)Nc2nc(-c3ccccc3)co2)cc1	< 1 µg/mL

Structure (SMILES)	solubility kinetic
COc1ccc(NC(=O)c2cccnc2C)cc1S(=O)(=O)Nc1ccc(Br)cc1	26.4 µg/mL (≈ 55.5 µM)
COC(=O)c1ccccc1C(=O)Nc1nc(-c2ccccc2)cs1	7.61 µg/mL (≈ 22.5 µM)
COc1cccc(O)c1CNc1ccc(S(=O)(=O)Nc2nccs2)cc1	> 58 µg/mL
CC(C)c1c(-c2ccccc2)nc2c(C#N)c[nH]n2c1=O	> 41 µg/mL
O=S(=O)(Nc1ccccc1)c1ccc(NCc2ccc(Br)cc2O)cc1	1.42 µg/mL (≈ 3.27 µM)
Fc1cc(Nc2nc(-c3ccncc3)nc3ccccc23)ccc1-c1cn[nH]c1	< 1 µg/mL
CCc1ccc(NC(=O)CSC2=Nc3ccccc3C3=NC(CC(=O)NCc4ccc5c(c4)OCO5)C(=O)N23)cc1 (configuration not stated)	2.36 µg/mL (≈ 4.15 µM)
CO[C@@H]1/C=C\O[C@@]2(C)Oc3c(C)c(O)c4c(c3C2=O)C(=N[C@H]2CC[C@H](O)O[C@@H]2C)C=C(NC(=O)/C(C)=C\C(=O)[C@@H]2C[C@@H]2[C@@H](O)[C@H](C)[C@@H](O)[C@H](C)[C@H](OC(C)=O)[C@@H]1C)C4=O	32.3 µg/mL (≈ 39.3 µM)
COc1ccccc1CNc1ccc(S(=O)(=O)Nc2nccs2)cc1	37.4 µg/mL (≈ 99.7 µM)
O=c1c2ccccc2nc(/C=C/c2cccnc2)n1Cc1ccccc1	1.8 µg/mL (≈ 5.29 µM)
CN(C(=O)CNC(=O)c1cc(F)ccc1OCC(=O)Nc1ccc(I)cc1)c1ccc(F)cc1	< 1 µg/mL
Oc1cccc(-c2nc(N3CCOCC3)c3oc4ncccc4c3n2)c1	< 1 µg/mL
Clc1ccc(-c2nnc(C3CCCCC3)o2)cc1	< 1 µg/mL
Cc1nn(-c2ccccc2)c2nc(C3CC3)cc(C(=O)Nc3ccc(F)cc3)c12	< 1 µg/mL
CC(C)c1ccc(OCc2nc3c(n2Cc2ccccc2)C(=O)N(CC2CC2)CCN3)cc1	< 1 µg/mL
Cc1cnc(-c2ccccc2C(C)(C)C)nc1NCc1ccc(-n2ccnn2)cc1	13.2 µg/mL (≈ 33.2 µM)
COc1cc(C(=O)NC2CCCc3c2[nH]c2ccccc32)cc(OC)c1OC (configuration not stated)	7.26 µg/mL (≈ 19.1 µM)
O=C(Cc1cccs1)NCc1nnc2ccc(-c3ccccc3)nn12	22 µg/mL (≈ 63 µM)
